Experimental data published in patent publication US20230285353A1, “A CHEMICAL COCKTAIL DRIVING EXPANSION OF MYOGENIC STEM CELLS” (The Regents of the University of California, priority 2020, published 2023).

Test system: neonatal dermal fibroblast-like cells
Assay: Screening small-molecules for myogenic induction (TnT+ cells)
Assay type: cell-based, mouse
Settings: for induction of myogenic cells, factor added individually to FR: basic medium with 20 μM F and R, bFGF 50 ng/ml or AA 50 μg/ml
Procedure: The next day the original medium was replaced with a screening medium containing small-molecule cocktails: KnockOut DMEM (Thermo Fisher Scientific), 10% knockout serum replacement (Thermo Fisher Scientific), 10% FBS (Hyclone, Inc.), 2 mM GlutaMAX (Thermo Fisher Scientific), 1% nonessential amino acids (Thermo Fisher Scientific), 1% penicillin-streptomycin (Thermo Fisher Scientific) and 20 ng/ml bFGF (Stemgent) containing the various small molecules, including valproic acid ([…]), tranylcypromine (T, 5 μM), forskolin (F, 10 μM), and 5-aza-2'deoxycytidine (5-Aza) (5-aza, 5 μM). The medium was changed once every 2-3 days. After optimizing the cocktail of small molecules and concentrations, the screening medium was replaced with Fb medium for further screening of additional candidates that may improve myogenic efficiency, including ascorbic acid (50 μg/ml, Sigma), BMP4 (20 ng/ml, Stemgent), Insulin (10 μg/ml, Stemgent), IGF-1 (50 ng/ml, R&D Systems), PDGF (50 ng/ml, R&D Systems), and bFGF (50 ng/ml, Stemgent Inc.). For cell immunostaining, cells were fixed in 4% paraformaldehyde for 15 minutes and permeabilized with 0.5% Triton-X 100 in PBS for 15 minutes. Cells were then blocked with 5% donkey serum for 1 hour and incubated overnight at 4° C. with primary antibodies (diluted in 5% donkey serum), including TnT (mouse mAb, DSHB), Myh1E (MF 20, mouse mAb, DSHB), Myh2 (SC-71, mouse mAb, DSHB), Myh3 (F1.652, mouse mAb, DSHB), Myh4 (BF-F3, mouse mAb, DSHB), Myh7 (BA-D5, mouse mAb, DSHB), Myh8 (Rabbit pAb, Thermo Fisher Scientific, PA5-72846), […]7) (dystrophin, mouse mAb, DSHB), MyoD (mouse mAb, DSHB), MyoG (mouse mAb, DSHB), Pax7 (mouse mAb, DSHB), Sox 10 (goat pAb, R&D Systems, AF2864), Ki 67 (rabbit mAb, Abcam, ab16667), FSP1 (rabbit mAb, Sigma, 07-2274), CD 90.2-FITC (rat mAb, Thermo Fisher Scientific, 11-0903-81), P75 (rabbit pAb, Abcam, ab8874) and PDGFR-α (rat mAb, Thermo Fisher Scientific, 13-1401-82). Then appropriate Alexa Fluor 488- or Alexa Fluor 546- or Alexa Fluor 647-conjugated secondary antibodies (Thermo Fisher Scientific) were used for 1 hour at room temperature.

Compound	induction of myogenic cells, factor added individually to FR	also measured
Nc1ncn([C@H]2C[C@H](O)[C@@H](CO)O2)c(=O)n1 [5-Aza, 5-aza-2′deoxycytidine]	–	induction of TnT+ cells (5-Aza treatment of dermal cells): did not show any significant induction
Cc1cccc(-c2[nH]ncc2-c2ccc3ncccc3n2)n1 [R, RepSox]	–	efficiency of CiMC expansion from dermal cells with single agent (F or R alone): almost negligible
O=C1O[C@H]([C@@H](O)CO)C(O)=C1O [AA, ascorbic acid]	significantly enhanced	–
basic fibroblast growth factor [bFGF]	significantly enhanced	–
